Results as given in publication PMC7606179 (Acta Pharmaceutica Sinica. B, 2020).

System: NA immobilized magnetic beads (NA from C. perfringens)
Assay type: binding, Clostridium perfringens

| SMILES | Behaviour in NA-MB ligand fishing of the artificial mixture |
| --- | --- |
| O=c1cc(-c2ccc(O)c(O)c2)oc2cc(O[C@@H]3O[C@H](CO)[C@@H](O)[C@H](O)[C@H]3O)cc(O)c12 [Galuteolin, galuteolin] | started to release from the enzyme when NA-MB was extracted using 50% organic solvent |
| O=c1c(O)c(-c2ccc(O)c(O)c2)oc2cc(O)cc(O)c12 [Quercetin] | specific inhibitors of NA |
| COc1ccc2c3c1O[C@H]1C[C@@H](O)C=C[C@@]31CCN(C)C2 [galantamine] | non-inhibitor of NA |
| COc1cc(-c2oc3cc(O)cc(O)c3c(=O)c2O)ccc1O [isorhamnetin] | started to release from the enzyme when NA-MB was extracted using 50% organic solvent |
| COc1cc2c(cc1O)CC[n+]1cc3c(OC)c(OC)ccc3cc1-2 [jatrorrhizine] | gradually washed out from M-S2 to M-S6 |
| O=c1cc(-c2ccc(O)c(O)c2)oc2cc(O)cc(O)c12 [luteolin] | specific inhibitors of NA |
